Patent US8906381B2, “Immunonanotherapeutics that provide IGG humoral response without T-cell antigen” (Massachusetts Institute of Technology, priority 2008, dated 2014)

How the values were obtained:
anti-nicotine IgG = assay: Anti-nicotine IgG in immunized mice (ELISA); type: in vivo, C57BL6 mice; settings: data of FIGS. 34 and 35
[1] = system: CD4 T cells from OT-II donor mice; assay: In vivo CD4 T cell activation (CFSE-labeled OT-II cells); set-up: species or system C57BL6J mice; settings: three days after footpad immunization; CpG adjuvant
Method: Subsequently, immunization experiments were performed by injecting one footpad with free OVA or with nanoparticles composed of either PLA or PLGA that encapsulated an equivalent amount of OVA as a model antigen. All antigenic mixtures also contained CpG (a TLR9 agonist) as an adjuvant. The animals were injected, sacrificed three days after immunization, and OT-II T cell activation was assessed by flow cytometry in single-cell suspensions from different tissues.
By contrast, activated T cells divide and in the process split the fluorescent dye evenly between the two daughter cells resulting in an incremental decrease in fluorescence intensity upon each successive division. Thus, the greater the left shift in CFSE, fluorescence the stronger T cells were activated.

Row | Compound | production of nicotine antibodies (anti-nicotine IgG) | local T cell proliferation in distal lymphoid tissues (brachial lymph node, spleen) [1]
1 | CN1CCCC1c1cccnc1 (centres unmarked) [free nicotine, nicotine] | does not elicit the production of nicotine antibodies | –
2 | free OVA: free chicken ovalbumin (OVA) model antigen, mixed with CpG adjuvant | – | only undivided cells or cells with very low CFSE content
